Read-outs that look alike come from different tables or passages of the source.
Experiments:
[1] = test system: alloreactive cytotoxic T cells (EL4 target cells); experiment: suppression of induction of alloreactive cytotoxic T cells in mouse allogenic MLC (51Cr release); assay type: cell-based
Experimental: The spleen cells suspension, 0.5 ml, (2×10^7 cells/ml) of BALB/c mouse (H-2^d) prepared in the same way as in Experimental Example 1, 0.5 ml of a suspension of mitomycin C-treated C57BL/6 mouse (H-2^b) spleen cells (2×10^7 cell/ml) and 1.0 ml of the test substance were added to 24-well multidishes, and cultured at 37° C. in an atmosphere of 5% carbon dioxide for 6 days.
After termination of the culture, the cells were harvested by centrifugation, and the concentration of the cell suspension was adjusted to 5×10^6 -6.25×10^5 cells/ml by using the RPMI1640 culture medium supplemented with 10% FCS, and used as the effector cell suspension.
The target cells used were leukemia cells EL4 from the syngenic (H-2^b) C57BL/b mouse as used for preparation of the stimulator cells. By incubating 10^6 EL4 cells in the presence of 100 μCi of Na2^51 CrO4 (1 mCi/ml) at 37° C. for 1 hour to incorporate ^51 Cr into the cytoplasm. The cell were washed, adjusted to the concentration of 10^4 cells/ml and used as the target cell suspension.
For the assay of the cytotoxic activity, 0.1 ml of the effector cell suspension and 0.1 ml of the target cell suspension were added to 96-well flat-bottomed plates, and cultured at 37° C. for 4 hours. The amount of ^51 Cr released into the supernatant was determined and the cytotoxic activity was calculated by the following formula. [formula]

[2] = test system: mouse spleen cells stimulated with phytohemagglutinin (PHA); experiment: suppression of blastogenic response of mouse spleen cells by PHA; assay type: cell-based; conditions: PHA (1/100); for inhibition at 0.01 µg/mL / inhibition at 0.1 µg/mL / inhibition at 1 µg/mL: Mus musculus, 76 h
Experimental: The effect on the mouse blastogenic response of mouse spleen cells stimulated with phytohemagglutinin (PHA) or with pokeweed mitogen (PWM) was examined as follows:
The spleen was resected from 5- to 8-week-old male […] BALB/c mice, and single cell suspension of spleen cells was prepared by using the RPMI1640 culture medium supplemented with 5% FCS. After hemolytic treatment, the concentration of the suspension was adjusted to 5×10^6 cells/ml by using the RPMI1640 culture medium supplemented with 10^-4 M 2-mercaptoethanol and 20% FCS, to which PHA or PWM was added. One hundred μl of the cell suspension was added to each well of 96-well microculture plates to which 100 μl per well of the test solution had been added (5×10^5 mouse spleen cells per well). After culturing at 37° C. in an atmosphere of 5% carbon dioxide for 72 hours, 0.5 μCi/well of ^3 H-thymidine was added and cultured under the same conditions for further 4 hours. After termination of the culture, the cells were harvested by a cell harvester, and the radioactivity incorporated into the cells was measured by a liquid scintillation counter, which was used as the index of blastogenic response of mouse spleen cells.

[3] = test system: IL2 production in mouse allogenic MLC; experiment: suppression of IL2 production in mouse allogenic MLC; assay type: cell-based; conditions: for inhibition at 0.01 µg/mL / inhibition at 0.1 µg/mL / inhibition at 1 µg/mL / inhibition at 10 µg/mL: Mus musculus, 48 h, read-out: Suppression
Experimental: Mouse allogenic MLC was carried out as follows:
The respondor cell suspension and the stimulator cell suspension (0.5 ml each) prepared in the same way as in Experimental Example 1 together with 1 ml of test substance were added to 24-well multidishes, and cultured at 37° C. in an atmosphere of 5% carbon dioxide for 2 days. After termination of the culture, the supernatant was collected and used as the supernatant of mouse allogenic MLC.
The IL2 activity in the supernatants of mouse allogenic MLC and the supernatants of PHA-stimulated mouse spleen cells culture was assayed as follows: IL2-dependent mouse cell line CTLL-2 cells were suspended in the RPMI1640 culture medium supplemented with 30% FCS to the concentration of 10^5 cells/ml, and 100 μl of the suspension was added to each well of 96-well microculture plates in which 100 μl of the supernatant of the MLC described above had been placed. After culturing at 37° C. in an atmosphere of 5% carbon dioxide for 20 hours, 0.5 μCi/well of ^3 H-thymidine was added, and incubated for 4 hours under the same conditions. After termination of the culture, the cells were harvested by a cell harvester, and the radioactivity incorporated into the cells was measured by a liquid scintillation counter. IL2 activity was expressed in U/ml as the titer at various concentrations at which the ^3 H-thymidine incorporation was 50% of the maximum.

[4] = test system: IL3-dependent mouse cell line FDC-P2; experiment: suppression of IL3-induced proliferation of FDC-P2; assay type: cell-based; conditions: for inhibition at 0.001 µg/mL / inhibition at 0.01 µg/mL / inhibition at 0.1 µg/mL / inhibition at 1 µg/mL / inhibition at 10 µg/mL: Mus musculus, 24 h
Experimental: IL3-dependent mouse cell line FDC-P2 cells were suspended in the RPMI1640 culture medium supplemented with 10% FCS to the concentration of 2×10^5 cells/ml. One hundred μl of the suspension and 50 μl of the supernatant of the culture of mouse luekemia cells WEHI3 containing IL3 were added to each well of 96-well microculture plates in which 100 μl of the test substance had been placed. After culturing at 37° C. in an atmosphere of 5% carbon dioxide for 20 hours, 0.5 μCi/well of ^3 H-thymidine was added, and cultured for 4 hours under the same conditions. After termination of the culture, the cells were harvested by a cell harvester, and the radioactivity incorporated into the cells was determined by a liquid scintillation counter, and was used as an index of the IL3-dependent proliferation.

KATOIII = experiment: in vitro; assay type: cell-based, human
[5] = 0.1 μg/ml, effector:target 25:1
[6] = 0.1 μg/ml, effector:target 50:1
[7] = 0.1 μg/ml, effector:target 100:1

| Compound | Amount of 51Cr release [1, 5] | Amount of 51Cr release [1, 6] | Amount of 51Cr release [1, 7] | inhibition at 0.01 µg/mL ([2]; 0.01 μg/ml) | inhibition at 0.1 µg/mL ([2]; 0.1 μg/ml) | inhibition at 1 µg/mL ([2]; 1 μg/ml) | 3H-thymidine uptake ([2]; 0.01 μg/ml) | 3H-thymidine uptake ([2]; 0.1 μg/ml) | 3H-thymidine uptake ([2]; 1 μg/ml) | IL2 activity ([3]; 0.01 μg/ml) | IL2 activity ([3]; 0.1 μg/ml) | IL2 activity ([3]; 1 μg/ml) | IL2 activity ([3]; 10 μg/ml) | 3H-thymidine uptake ([4]; 0.001 μg/ml) | 3H-thymidine uptake ([4]; 0.01 μg/ml) | 3H-thymidine uptake ([4]; 0.1 μg/ml) | 3H-thymidine uptake ([4]; 1 μg/ml) | 3H-thymidine uptake ([4]; 10 μg/ml) | inhibition at 0.001 µg/mL ([4]; 0.001 μg/ml) | inhibition at 0.01 µg/mL ([4]; 0.01 μg/ml) | also measured |
| --- | --- | --- | --- | --- | --- | --- | --- | --- | --- | --- | --- | --- | --- | --- | --- | --- | --- | --- | --- | --- | --- |
| CCCCCCC(=O)CCCCCC/C=C/CC(O)C(O)C(N)(CO)C(=O)O (stereo not drawn) [Example 1] | 764 cpm | 773 cpm | 771 cpm | 71.9% | 66.8% | 92.4% | 3238 cpm | 3624 cpm | 1686 cpm | 4.0 U/ml | 2.0 U/ml | 1.1 U/ml | < 1 U/ml | 6858 cpm | 6572 cpm | 5203 cpm | 5029 cpm | 2750 cpm | 21.5% | 25.7% | Amount of 51Cr release ([1]; 0.01 μg/ml, effector:target 25:1): 816 cpm; Amount of 51Cr release ([1]; 0.01 μg/ml, effector:target 50:1): 783 cpm; Amount of 51Cr release ([1]; 0.01 μg/ml, effector:target 100:1): 808 cpm; inhibition at 0.01 µg/mL [3]: 59.2%; inhibition at 0.1 µg/mL [3]: 79.6%; inhibition at 1 µg/mL [3]: 88.8%; inhibition at 10 µg/mL [3]: > 90%; inhibition at 0.1 µg/mL ([4]; 0.1 μg/ml): 45.9%; inhibition at 1 µg/mL ([4]; 1 μg/ml): 48.5%; inhibition at 10 µg/mL ([4]; 10 μg/ml): 82.1%; Absorbancy (KATOIII; 0.01 μg/ml): 0.990; Absorbancy (KATOIII; 0.1 μg/ml): 0.972; Absorbancy (KATOIII; 1.0 μg/ml): 0.961; Absorbancy (KATOIII; 10.0 μg/ml): 0.869; Absorbancy (KATOIII; 100.0 μg/ml): 0.041 |
| CCCCCCC(=O)CCCCCC/C=C/CC1OC(=O)C(N)(CO)C1O (stereo not drawn) [Example 4] | 767 cpm | 780 cpm | 761 cpm | 34.5% | 57.8% | 71% | 6074 cpm | 4312 cpm | 3308 cpm | 4.0 U/ml | 1.7 U/ml | < 1 U/ml | < 1 U/ml | 7754 cpm | 6557 cpm | 5861 cpm | 4922 cpm | 2902 cpm | 8.3% | 25.9% | Cytotoxic activity [1, 5]: 0%; Cytotoxic activity [1, 6]: 0%; Cytotoxic activity [1, 7]: 0%; inhibition at 0.01 µg/mL ([3]; 0.01 μg/ml): 59.2%; inhibition at 0.1 µg/mL ([3]; 0.1 μg/ml): 82.7%; inhibition at 1 µg/mL ([3]; 1 μg/ml): > 90%; inhibition at 10 µg/mL ([3]; 10 μg/ml): > 90%; inhibition at 0.1 µg/mL ([4]; 0.1 μg/ml): 36.2%; inhibition at 1 µg/mL ([4]; 1 μg/ml): 50.1%; inhibition at 10 µg/mL ([4]; 10 μg/ml): 79.9%; Absorbancy (KATOIII; 0.1 μg/ml): 0.407; Absorbancy (KATOIII; 1.0 μg/ml): 0.401; Absorbancy (KATOIII; 10.0 μg/ml): 0.319; Absorbancy (KATOIII; 100.0 μg/ml): 0.009 |

From US5219884A, “Immunosuppressant” (Taito Co., Ltd., priority 1990, dated 1993)
